Where “and” joins values, the source holds several entries; their conditions need not be identical. Equal entries are not always repeated.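 Results reflect a 48-hour exposure of cells in 96-well plates to compound at five concentrations. GI50 is the concentration that inhibits growth by half. TGI is the concentration that stops growth completely.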
What was measured:
Test in all cases: inhibition of tumour cell growth, NCI panel, 48 h
ACHN renal = test system: ACHN renal
HT29 colon = test system: HT29 colon
K-562 leukemia = test system: K-562 leukemia
M14 melanoma = test system: M14 melanoma
NCI-H460 lung = test system: NCI-H460 lung
OVCAR-5 ovarian = test system: OVCAR-5 ovarian
OVCAR-8 ovarian = test system: OVCAR-8 ovarian
RXF 393 renal = test system: RXF 393 renal
SW-620 colon = test system: SW-620 colon
HCT-15 colon = test system: HCT-15 colon

| SMILES | TGI (ACHN renal) | TGI (HT29 colon) | TGI (K-562 leukemia) | TGI (M14 melanoma) | TGI (NCI-H460 lung) | TGI (OVCAR-5 ovarian) | TGI (OVCAR-8 ovarian) | TGI (RXF 393 renal) | TGI (SW-620 colon) | GI50 (ACHN renal) | GI50 (HCT-15 colon) | TGI (HCT-15 colon) | GI50 (HT29 colon) | GI50 (K-562 leukemia) | GI50 (M14 melanoma) | GI50 (NCI-H460 lung) | GI50 (OVCAR-5 ovarian) | GI50 (RXF 393 renal) | GI50 (SW-620 colon) | GI50 (OVCAR-8 ovarian) |
| --- | --- | --- | --- | --- | --- | --- | --- | --- | --- | --- | --- | --- | --- | --- | --- | --- | --- | --- | --- | --- |
| CC1C2CC(C/C2=N/O)C1(C)C (stereo not drawn) | > 100 µM | > 100 µM | > 100 µM | > 100 µM | > 100 µM | > 100 µM | > 100 µM | > 100 µM | > 100 µM | – | – | – | – | – | – | – | – | – | – | – |
| COc1ccc2c(c1)/C(=C\c1c[nH]c3ccc(OC)cc13)C(=O)N2 | 12.4 µM | 14.9 µM | 15.5 µM | 6.14 µM | 13.1 µM | 13.2 µM | – | 9.6 µM | 11 µM | 2.93 µM | 2.97 µM | 12.9 µM | 4.07 µM | 2.21 µM | 1.91 µM | 3.26 µM | 3.43 µM | 2.91 µM | 2.77 µM | – |
| Nc1ncnc2c1nnn2C1C=C(CO)C(O)C1O (stereo not drawn) | > 100 µM | > 100 µM | > 100 µM | > 100 µM | > 100 µM | > 100 µM | > 100 µM | > 100 µM | > 63.1 µM | – | – | > 100 µM | – | – | – | – | – | – | – | – |
| CCOC(=O)C1=C(C)N2C(=NC3=C(CCC/C3=C\c3ccc(Cl)cc3)C2c2ccc(Cl)cc2)S1 (stereo not drawn) | 33.6 µM | 5.92 µM | 11.8 µM | – | 19.4 µM | > 100 µM | 31 µM | 3.51 µM | 6.39 µM | 3.64 µM | 2.15 µM | 4.84 µM | 2.35 µM | 3.45 µM | – | 4.04 µM | 20.1 µM | 1.88 µM | 2.44 µM | 3.24 µM |
| C=CCn1c(=O)c2cnc(Nc3ccc(N4CCN(C)CC4)cc3)nc2n1-c1cccc(C(C)(C)O)n1 | > 100 µM | 0.643 µM and > 3.82 µM | 17.8 µM and > 7.64 µM | 11.2 µM and > 5.86 µM | 14.1 µM and > 10 µM | > 100 µM | 2.91 µM and > 7.79 µM | 0.531 µM and 1.14 µM | 12.3 µM and > 10 µM | 0.075 µM and 0.226 µM | 0.682 µM and 0.601 µM | > 67.1 µM | 0.207 µM and 0.286 µM | 0.315 µM and 0.282 µM | 0.191 µM and 0.213 µM | 1.56 µM and 0.996 µM | 0.557 µM and 1.05 µM | 0.0855 µM and 0.232 µM | 0.316 µM and 0.448 µM | 0.417 µM and 0.526 µM |
| COc1cc(C2CC(=O)Nc3c2cc(Br)c2ccccc32)cc(Br)c1OC (stereo not drawn) | – | 4.21 µM | 20.5 µM | > 100 µM | 5 µM | > 100 µM | > 100 µM | 3.93 µM | > 100 µM | – | 0.907 µM | > 100 µM | 0.514 µM | 0.493 µM | 1.08 µM | 1.66 µM | 3.02 µM | 1.73 µM | 0.53 µM | 1.74 µM |
| Cc1cc(C)nc(NS(=O)(=O)c2ccc(NC(=O)c3cccn4c(=O)c5ccccc5nc34)cc2)n1 | > 100 µM | > 100 µM | > 100 µM | > 100 µM | > 100 µM | > 100 µM | 85.2 µM | 67.4 µM | > 100 µM | – | – | > 100 µM | – | – | – | – | – | – | – | – |
| C[C@H]1c2ccccc2CN1CCCOc1cc2c(cc1OCC1CC1)C1(CCCC1)C(N)=N2 | 6.69 µM | 2.67 µM | 2.46 µM | 1.81 µM | 2.1 µM | 10.1 µM | 8.83 µM | 3.82 µM | 2.31 µM | 1.8 µM | 1.46 µM | 5.1 µM | 1.05 µM | 0.871 µM | 0.932 µM | 1.02 µM | 3.6 µM | 1.08 µM | 0.977 µM | 2.38 µM |
